Experimental data published in PubChem BioAssay AID1963982 (Molecular Pharmacology Branch, DTP, NCI, 2024).
Each block holds one compound with its values, some of them ahead of it.

Test system: 313798-341-R-J2-PDC spheroids, viability
Assay: Anticancer human tumor 313798-341-R-J2-PDC patient-derived cervical squamous cell carcinoma cell line growth inhibition [PI3K]
Conditions: spheroids with HUVEC and MSC; for IC50: curve of first compound; for viability, T/C: stronger effect = lower value
Procedure, shortened: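 Tumor cells grown as multi-cell spheroids with HUVEC endothelial cells and MSC fibroblast-like stroma were treated with targeted agents combined with inavolisib, alpelisib, duvelisib or copanlisib. Doses fell in half-log steps from near clinical Cmax, else from 10 microM. Viability was measured.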

[1] = second compound 0.0316 µM, first compound 0.0316 µM
[2] = second compound 0.0316 µM, first compound 0.1 µM
[3] = second compound 0.0316 µM, first compound 0.316 µM
[4] = second compound 0.0316 µM, first compound 1 µM
[5] = second compound 0.0316 µM, first compound 3.16 µM
[6] = second compound 0.0316 µM, first compound 10 µM
[7] = second compound 0.1 µM, first compound 0.0316 µM
[8] = second compound 0.1 µM, first compound 0.1 µM
[9] = second compound 0.1 µM, first compound 0.316 µM
[10] = second compound 0.1 µM, first compound 1 µM
[11] = second compound 0.1 µM, first compound 3.16 µM
[12] = second compound 0.1 µM, first compound 10 µM
[13] = second compound 0.316 µM, first compound 0.0316 µM
[14] = second compound 0.316 µM, first compound 0.1 µM
[15] = second compound 0.316 µM, first compound 0.316 µM
[16] = second compound 0.316 µM, first compound 1 µM
[17] = second compound 0.316 µM, first compound 3.16 µM
[18] = second compound 0.316 µM, first compound 10 µM
[19] = second compound 1 µM, first compound 0.0316 µM
[20] = second compound 1 µM, first compound 0.1 µM
[21] = second compound 1 µM, first compound 0.316 µM
[22] = second compound 1 µM, first compound 1 µM
[23] = second compound 1 µM, first compound 3.16 µM
[24] = second compound 1 µM, first compound 10 µM
[25] = second compound 3.16 µM, first compound 0.0316 µM
[26] = second compound 3.16 µM, first compound 0.1 µM
[27] = second compound 3.16 µM, first compound 0.316 µM
[28] = second compound 3.16 µM, first compound 1 µM
[29] = second compound 3.16 µM, first compound 3.16 µM
[30] = second compound 3.16 µM, first compound 10 µM
[31] = second compound 10 µM, first compound 0.0316 µM
[32] = second compound 10 µM, first compound 0.1 µM
[33] = second compound 10 µM, first compound 0.316 µM
[34] = second compound 10 µM, first compound 1 µM
[35] = second compound 10 µM, first compound 3.16 µM
[36] = second compound 10 µM, first compound 10 µM
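Further: spheroids exposed to compounds for seven days.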
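Wherever viability, T/C is given: 100% = DMSO vehicle control viability.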

- IC50 (second compound 0.0316 µM): > 10 µM
- IC50 (second compound 0.1 µM): > 10 µM
- IC50 (second compound 0.316 µM): > 10 µM
- IC50 (second compound 1 µM): > 10 µM
- IC50 (second compound 3.16 µM): > 10 µM
- IC50 (second compound 10 µM): > 10 µM
Compound: C#Cc1c(F)ccc2cc(O)cc(-c3ncc4c(N5CC6CCC(C5)N6)nc(OCC56CCCN5CC(F)C6)nc4c3F)c12 (stereo unspecified) + CC(Nc1ncnc2nc[nH]c12)c1cc2cccc(Cl)c2c(=O)n1-c1ccccc1
- viability, T/C [1]: 95.5%
- viability, T/C [2]: 95.7%
- viability, T/C [3]: 99%
- viability, T/C [4]: 101%
- viability, T/C [5]: 101%
- viability, T/C [6]: 96.9%
- viability, T/C [7]: 92.5%
- viability, T/C [8]: 95.8%
- viability, T/C [9]: 93.2%
- viability, T/C [10]: 98.3%
- viability, T/C [11]: 102%
- viability, T/C [12]: 102%
- viability, T/C [13]: 95.3%
- viability, T/C [14]: 104%
- viability, T/C [15]: 90.9%
- viability, T/C [16]: 93.9%
- viability, T/C [17]: 99.1%
- viability, T/C [18]: 100%
- viability, T/C [19]: 114%
- viability, T/C [20]: 99.4%
- viability, T/C [21]: 90.3%
- viability, T/C [22]: 94.6%
- viability, T/C [23]: 104%
- viability, T/C [24]: 107%
- viability, T/C [25]: 110%
- viability, T/C [26]: 97.2%
- viability, T/C [27]: 94.3%
- viability, T/C [28]: 101%
- viability, T/C [29]: 90.4%
- viability, T/C [30]: 99.9%
- viability, T/C [31]: 93.2%
- viability, T/C [32]: 83.9%
- viability, T/C [33]: 81%
- viability, T/C [34]: 81.2%
- viability, T/C [35]: 85.1%
- viability, T/C [36]: 81.9%

- IC50 (second compound 0.0316 µM): > 10 µM
- IC50 (second compound 0.1 µM): > 10 µM
- IC50 (second compound 0.316 µM): > 10 µM
- IC50 (second compound 1 µM): > 10 µM
- IC50 (second compound 3.16 µM): > 10 µM
- IC50 (second compound 10 µM): > 10 µM
Compound: CC(Cn1ccc(-c2ccc(C#N)c(Cl)c2)n1)NC(=O)c1cc(C(C)O)[nH]n1 (stereo unspecified) + CC(Nc1ncnc2nc[nH]c12)c1cc2cccc(Cl)c2c(=O)n1-c1ccccc1
- viability, T/C [1]: 119%
- viability, T/C [2]: 103%
- viability, T/C [3]: 106%
- viability, T/C [4]: 115%
- viability, T/C [5]: 101%
- viability, T/C [6]: 101%
- viability, T/C [7]: 101%
- viability, T/C [8]: 105%
- viability, T/C [9]: 104%
- viability, T/C [10]: 103%
- viability, T/C [11]: 98%
- viability, T/C [12]: 95%
- viability, T/C [13]: 90.9%
- viability, T/C [14]: 103%
- viability, T/C [15]: 96.6%
- viability, T/C [16]: 101%
- viability, T/C [17]: 102%
- viability, T/C [18]: 90%
- viability, T/C [19]: 113%
- viability, T/C [20]: 106%
- viability, T/C [21]: 108%
- viability, T/C [22]: 101%
- viability, T/C [23]: 96.2%
- viability, T/C [24]: 91.5%
- viability, T/C [25]: 108%
- viability, T/C [26]: 103%
- viability, T/C [27]: 100%
- viability, T/C [28]: 107%
- viability, T/C [29]: 105%
- viability, T/C [30]: 93.4%
- viability, T/C [31]: 87.8%
- viability, T/C [32]: 88.3%
- viability, T/C [33]: 94.6%
- viability, T/C [34]: 100%
- viability, T/C [35]: 90.8%
- viability, T/C [36]: 81.7%

- IC50 (second compound 0.0316 µM): < 0.0316 µM
- IC50 (second compound 0.1 µM): < 0.0316 µM
- IC50 (second compound 0.316 µM): < 0.0316 µM
- IC50 (second compound 1 µM): < 0.0316 µM
- IC50 (second compound 3.16 µM): < 0.0316 µM
- IC50 (second compound 10 µM): < 0.0316 µM
Compound: CC1(C)CCC(Nc2ncc(C(F)(F)F)c(-c3c[nH]c4c(P(C)(C)=O)c(C#N)ccc34)n2)CN1 (stereo unspecified) + CC(Nc1ncnc2nc[nH]c12)c1cc2cccc(Cl)c2c(=O)n1-c1ccccc1
- viability, T/C [1]: 54.2%
- viability, T/C [2]: 46.3%
- viability, T/C [3]: 46.9%
- viability, T/C [4]: 48%
- viability, T/C [5]: 50.5%
- viability, T/C [6]: 60.4%
- viability, T/C [7]: 47.3%
- viability, T/C [8]: 49.3%
- viability, T/C [9]: 47.3%
- viability, T/C [10]: 46.8%
- viability, T/C [11]: 50.3%
- viability, T/C [12]: 66.6%
- viability, T/C [13]: 49.3%
- viability, T/C [14]: 44.3%
- viability, T/C [15]: 44.3%
- viability, T/C [16]: 43.8%
- viability, T/C [17]: 51.8%
- viability, T/C [18]: 62.3%
- viability, T/C [19]: 47.4%
- viability, T/C [20]: 46.8%
- viability, T/C [21]: 45.5%
- viability, T/C [22]: 49.2%
- viability, T/C [23]: 54%
- viability, T/C [24]: 58.2%
- viability, T/C [25]: 49.2%
- viability, T/C [26]: 45.4%
- viability, T/C [27]: 42.7%
- viability, T/C [28]: 45.8%
- viability, T/C [29]: 43.7%
- viability, T/C [30]: 50.3%
- viability, T/C [31]: 42.1%
- viability, T/C [32]: 36.2%
- viability, T/C [33]: 35%
- viability, T/C [34]: 34.5%
- viability, T/C [35]: 38.1%
- viability, T/C [36]: 38.1%
